Bounds are passed on as bounds.

This assay deals with HPK1 (Homo sapiens (Human), UniProt Q92918). Description: HPK1 Kinase Binding Assay. In a few lines: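 This is a LanthaScreen tracer-binding format: a tracer 222/Eu-anti-GST antibody mix (18 nM and 4 nM solution) is added to active HPK1 (4 nM solution) with 3-fold, 11-point compound dilutions. Incubation is 1 h at 25 °C in HEPES pH 7.5 buffer before reading, and Ki is determined.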
HPK1, sequence (Q92918 1-346): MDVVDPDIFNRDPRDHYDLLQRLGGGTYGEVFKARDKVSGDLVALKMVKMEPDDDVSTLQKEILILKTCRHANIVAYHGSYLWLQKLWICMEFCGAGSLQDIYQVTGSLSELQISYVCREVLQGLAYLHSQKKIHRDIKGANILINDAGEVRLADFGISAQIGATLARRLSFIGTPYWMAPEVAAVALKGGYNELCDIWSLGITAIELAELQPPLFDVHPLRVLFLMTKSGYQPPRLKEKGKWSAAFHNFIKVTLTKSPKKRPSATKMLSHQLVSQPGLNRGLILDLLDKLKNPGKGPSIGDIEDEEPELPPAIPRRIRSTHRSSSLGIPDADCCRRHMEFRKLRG
Turning to `COC1CN(Cc2cc(F)c(-c3cc4c(NC(=O)c5ccc(N6CCN(C)CC6)cc5)n[nH]c4cn3)c(F)c2)C1` [Example 143, N-(5-(2,6-Difluoro-4-((3-methoxyazetidin-1-yl)methyl)phenyl)-1H-pyrazolo[3,4-c]pyridin-3-yl)-4-(4-methylpiperazin-1-yl)benzamide], the Ki was at most 100 nM.
Consider `CNCc1cc(F)c(-c2cc3c(NC(=O)c4cnn(C)c4)n[nH]c3cn2)c(F)c1` [Example 144, N-(5-(2,6-Difluoro-4-((methylamino)methyl)phenyl)-1H-pyrazolo[3,4-c]pyridin-3-yl)-1-methyl-1H-pyrazole-4-carboxamide], for which the Ki was at most 100 nM.
Under `CNCc1cc(F)c(-c2cc3c(NC(=O)c4cccc(N5CCN(C)CC5)c4)n[nH]c3cn2)c(F)c1` [Example 145, N-(5-(2,6-Difluoro-4-((methylamino)methyl)phenyl)-1H-pyrazolo[3,4-c]pyridin-3-yl)-3-(4-methylpiperazin-1-yl)benzamide] stands at most 100 nM.
Under `COc1cccc(C(=O)Nc2n[nH]c3cnc(-c4c(F)cc(CNC(C)C)cc4F)cc23)c1` [Example 146, N-(5-(2,6-Difluoro-4-((isopropylamino)methyl)phenyl)-1H-pyrazolo[3,4-c]pyridin-3-yl)-3-methoxybenzamide] stands at most 100 nM; under `COC(=O)N1CCN(c2ccc(C(=O)Nc3n[nH]c4cnc(-c5c(F)cc(CNC(C)C)cc5F)cc34)cc2)CC1` [Example 147, Methyl 4-(4-(5-(2,6-difluoro-4-((isopropylamino)methyl)phenyl)-1H-pyrazolo[3,4-c]pyridin-3-ylcarbamoyl)phenyl)piperazine-1-carboxylate], at most 100 nM.
The same measure for `COC(=O)N1CCN(c2ccc(C(=O)Nc3n[nH]c4cnc(-c5c(F)cc(CNC(C)C)cc5F)cc34)c(F)c2)CC1` [Example 148, Methyl 4-(4-(5-(2,6-difluoro-4-((isopropylamino)methyl)phenyl)-1H-pyrazolo[3,4-c]pyridin-3-ylcarbamoyl)-3-fluorophenyl)piperazine-1-carboxylate]: at most 100 nM; for `COc1cc(N2CCN(C)CC2)ccc1C(=O)Nc1n[nH]c2cnc(-c3c(F)cc(CNC(C)C)cc3F)cc12` [Example 149, N-(5-(2,6-Difluoro-4-((isopropylamino)methyl)phenyl)-1H-pyrazolo[3,4-c]pyridin-3-yl)-2-methoxy-4-(4-methylpiperazin-1-yl)benzamide]: at most 100 nM.
`CC(C)NCc1cc(F)c(-c2cc3c(NC(=O)c4cccc(N5CCN(C)CC5)c4F)n[nH]c3cn2)c(F)c1` [Example 150, N-(5-(2,6-Difluoro-4-((isopropylamino)methyl)phenyl)-1H-pyrazolo[3,4-c]pyridin-3-yl)-2-fluoro-3-(4-methylpiperazin-1-yl)benzamide]: the inhibition constant (Ki) was at most 100 nM.
Under `CC(C)NCc1cc(F)c(-c2cc3c(NC(=O)c4ccc(F)c(N5CCN(C)CC5)c4)n[nH]c3cn2)c(F)c1` [Example 151, N-(5-(2,6-Difluoro-4-((isopropylamino)methyl)phenyl)-1H-pyrazolo[3,4-c]pyridin-3-yl)-4-fluoro-3-(4-methylpiperazin-1-yl)benzamide] stands at most 100 nM; under `Cc1cccc(F)c1-c1cc2c(NC(=O)c3ccc(N4CCN(C)CC4)cc3)n[nH]c2cn1` [Example 152, N-(5-(2-Fluoro-6-methylphenyl)-1H-pyrazolo[3,4-c]pyridin-3-yl)-4-(4-methylpiperazin-1-yl)benzamide], at most 100 nM; under `CN1CCN(c2ccc(C(=O)Nc3n[nH]c4cnc(-c5c(F)cccc5C(F)(F)F)cc34)cc2)CC1` [Example 153, N-(5-(2-Fluoro-6-(trifluoromethyl)phenyl)-1H-pyrazolo[3,4-c]pyridin-3-yl)-4-(4-methylpiperazin-1-yl)benzamide], at most 100 nM.
Molecule `CCNCc1cc(F)c(-c2cc3c(NC(=O)c4ccc(N5CCN(C)CC5)cc4)n[nH]c3cn2)c(C(F)(F)F)c1` [Example 154, N-(5-(4-((Ethylamino)methyl)-2-fluoro-6-(trifluoromethyl)phenyl)-1H-pyrazolo[3,4-c]pyridin-3-yl)-4-(4-methylpiperazin-1-yl)benzamide] came in with a Ki of at most 100 nM.
Under `CC(C)NCc1cc(F)c(-c2cc3c(C(=O)Nc4ccc(N5CCN(C)CC5)cc4)n[nH]c3cn2)c(F)c1` [Example 155, 5-(2,6-Difluoro-4-((isopropylamino)methyl)phenyl)-N-(4-(4-methylpiperazin-1-yl)phenyl)-1H-pyrazolo[3,4-c]pyridine-3-carboxamide] stands at most 100 nM; under `CN1CCN(c2ccc(C(=O)Nc3n[nH]c4cnc(-c5c(F)cc(NC(=O)CN6CCCC6)cc5F)cc34)cc2)CC1` [Example 156, N-(5-(2,6-Difluoro-4-(2-(pyrrolidin-1-yl)acetamido)phenyl)-1H-pyrazolo[3,4-c]pyridin-3-yl)-4-(4-methylpiperazin-1-yl)benzamide], at most 100 nM.
`Cc1cccc(F)c1-c1cc2c(NC(=O)c3ccc(N4CCN(C)CC4)cc3N)n[nH]c2cn1` [Example 157, 2-Amino-N-(5-(2-fluoro-6-methylphenyl)-1H-pyrazolo[3,4-c]pyridin-3-yl)-4-(4-methylpiperazin-1-yl)benzamide] showed a Ki of at most 100 nM.
Under `Cc1cccc(F)c1-c1cc2c(NC(=O)c3ccc(N4CCN(C)CC4)cc3NCC(C)O)n[nH]c2cn1` (stereo not drawn) [Example 158, N-(5-(2-Fluoro-6-methylphenyl)-1H-pyrazolo[3,4-c]pyridin-3-yl)-2-(2-hydroxypropylamino)-4-(4-methylpiperazin-1-yl)benzamide] stands at most 100 nM; under `Cc1cccc(F)c1-c1cc2c(NC(=O)c3ccc(N4CCN(C)CC4)cc3NCc3ccnn3C)n[nH]c2cn1` [Example 159, N-(5-(2-Fluoro-6-methylphenyl)-1H-pyrazolo[3,4-c]pyridin-3-yl)-2-((1-methyl-1H-pyrazol-5-yl)methylamino)-4-(4-methylpiperazin-1-yl)benzamide], at most 100 nM.
Under `Cc1cccc(F)c1-c1cc2c(NC(=O)c3ccc(N4CCN(C)CC4)cc3NC3CCC(C#N)C3)n[nH]c2cn1` (stereo not drawn) [Example 160, 2-(3-Cyanocyclopentylamino)-N-(5-(2-fluoro-6-methylphenyl)-1H-pyrazolo[3,4-c]pyridin-3-yl)-4-(4-methylpiperazin-1-yl)benzamide] stands at most 100 nM; under `CNCc1cc(F)c(-c2cc3c(-c4cnn(-c5ccccc5C#N)c4)n[nH]c3cn2)c(F)c1` [Example 161, 2-(4-(5-(2,6-Difluoro-4-((methylamino)methyl)phenyl)-1H-pyrazolo[3,4-c]pyridin-3-yl)-1H-pyrazol-1-yl)benzonitrile], at most 100 nM.
Under `CNCc1cc(F)c(-c2cc3c(-c4cnn(C5CNC5)c4)n[nH]c3cn2)c(F)c1` [Example 162, 1-(4-(3-(1-(Azetidin-3-yl)-1H-pyrazol-4-yl)-1H-pyrazolo[3,4-c]pyridin-5-yl)-3,5-difluorophenyl)-N-methylmethanamine] stands at most 100 nM; under `CNCc1cc(F)c(-c2cc3c(-c4ccnc(N5CCN(C)CC5)c4)n[nH]c3cn2)c(F)c1` [Example 163, 1-(3,5-Difluoro-4-(3-(2-(4-methylpiperazin-1-yl)pyridin-4-yl)-1H-pyrazolo[3,4-c]pyridin-5-yl)phenyl)-N-methylmethanamine], at most 100 nM; under `CNCc1cc(F)c(-c2cc3c(-c4cnn(CCO)c4)n[nH]c3cn2)c(F)c1` [Example 164, 2-(4-(5-(2,6-Difluoro-4-((methylamino)methyl)phenyl)-1H-pyrazolo[3,4-c]pyridin-3-yl)-1H-pyrazol-1-yl)ethanol], at most 100 nM.
Regarding `CNCc1cc(F)c(-c2cc3c(-c4ccc(OC)cc4)n[nH]c3cn2)c(F)c1` [Example 165, 1-(3,5-Difluoro-4-(3-(4-methoxyphenyl)-1H-pyrazolo[3,4-c]pyridin-5-yl)phenyl)-N-methylmethanamine], the inhibitory constant (Ki) is at most 100 nM.
In the case of `CNCc1cc(F)c(-c2cc3c(-c4ccc(N5CCC(O)CC5)nc4)n[nH]c3cn2)c(F)c1` [Example 166, 1-(5-(5-(2,6-Difluoro-4-((methylamino)methyl)phenyl)-1H-pyrazolo[3,4-c]pyridin-3-yl)pyridin-2-yl)piperidin-4-ol], the Ki was at most 100 nM.
The same measure for `CNCc1cc(F)c(-c2cc3c(-c4ccc(N5CCC(F)C5)cn4)n[nH]c3cn2)c(F)c1` (stereo not drawn) [Example 167, 1-(3,5-Difluoro-4-(3-(5-(3-fluoropyrrolidin-1-yl)pyridin-2-yl)-1H-pyrazolo[3,4-c]pyridin-5-yl)phenyl)-N-methylmethanamine]: at most 100 nM; for `CNCc1cc(C)c(-c2cc3c(-c4cnn(C)c4)n[nH]c3cn2)c(F)c1` [Example 168, 1-(3-Fluoro-5-methyl-4-(3-(1-methyl-1H-pyrazol-4-yl)-1H-pyrazolo[3,4-c]pyridin-5-yl)phenyl)-N-methylmethanamine]: at most 100 nM; for `CNCc1cc(C)c(-c2cc3c(-c4ccc(C(=O)NC)cc4)n[nH]c3cn2)c(F)c1` [Example 169, 4-(5-(2-Fluoro-6-methyl-4-((methylamino)methyl)phenyl)-1H-pyrazolo[3,4-c]pyridin-3-yl)-N-methylbenzamide]: at most 100 nM.
The same measure for `CNC(=O)c1ccc(-c2n[nH]c3cnc(-c4c(C)cc(C5CCCN5)cc4F)cc23)cc1` (stereo not drawn) [Example 170, 4-(5-(2-Fluoro-6-methyl-4-(pyrrolidin-2-yl)phenyl)-1H-pyrazolo[3,4-c]pyridin-3-yl)-N-methylbenzamide]: at most 100 nM.
The same measure for `Cc1cc(C2CCCN2C)cc(F)c1-c1cc2c(-c3cnn(C)c3)n[nH]c2cn1` (stereo not drawn) [Example 173, 5-(2-Fluoro-6-methyl-4-(1-methylpyrrolidin-2-yl)phenyl)-3-(1-methyl-1H-pyrazol-4-yl)-1H-pyrazolo[3,4-c]pyridine]: at most 100 nM.
`CCNCc1cc(C)c(-c2cc3c(-c4cnn(C)c4)n[nH]c3cn2)c(F)c1` [Example 176, N-(3-Fluoro-5-methyl-4-(3-(1-methyl-1H-pyrazol-4-yl)-1H-pyrazolo[3,4-c]pyridin-5-yl)benzyl)ethanamine]: the Ki is at most 100 nM.

As usually defined, the Ki is the equilibrium dissociation constant of an inhibitor or competing ligand from its target.

The record behind these values is US10435405B2, “Pyrazolopyridine compounds and uses thereof” (Incyte Corporation, priority 2016, dated 2019).
